Measurements reported in patent US4699928A, “Fluoroallylamine derivatives” (Merrell Dow Pharmaceuticals Inc., priority 1986, dated 1987).

Tests used:
MAO-A and MAO-B = settings: cited from earlier work
MAO-B versus MAO-A = assay: Selectivity of inhibition of MAO-B versus MAO-A in vitro (14C phenethylamine / 14C 5-hydroxytryptamine); type: biochemical; settings: rat, brain mitochondria
Procedure: Mitochondria are prepared from rat brain by homogenation in phosphate buffer (0.1 M, pH 7.2) followed by differential centrifugation. The mitochondria are suspended in the same buffer, the test compound is added at the desired concentration, and the system is incubated. At different time intervals, aliquots are taken and MAO activity is measured using ^14 C p-tyramine (a mixed substrate) as the substrate (See A. Christmas et al., supra).
(C) The selectivity of a compound of Formula I with respect to inhibition of MAO-A and MAO-B can be determined by repeating the procedure of Part B and measuring the MAO activity using ^14 C 5-hydroxytryptamine (a preferred substrate for MAO-A) and ^14 C phenethylamine (a preferred substrate for MAO-B) as the substrate.

MAO = assay: Inhibition of MAO in vitro, partially purified rat brain mitochondria, 14C p-tyramine substrate; type: biochemical; settings: tested as hydrochloride salt
Source text: Inhibition of MAO--In vitro testing
(A) The ability of a compound of Formula I to inhibit MAO can be determined in vitro by the method of A. Christmas et al., Br. J. Pharmacol., 45, 490 (1972) in partially purified mitochondria from rat brain using ^14 C p-tyramine as the substrate. The MAO inhibitory activity of a compound is expressed as the "IC50 " value, which is the molar concentration required to produce 50% inhibition of the enzyme.

[1] = low dosages where preferential inhibition of MAO-B occurs; cited from earlier work
[2] = test system: heart rate response to p-tyramine; assay: Cheese effect: potentiation of response to intravenous p-tyramine, pithed rats; type: in vivo, male Sprague-Dawley rats; settings: p-tyramine i.v.
Procedure: (§1) The following test procedures can be employed to assess the potential of a compound of Formula I for producing the "cheese effect": […]
(§2) Eighteen hours later the animals are anaesthetized with pentobarbitone (60 mg/kg i.p.), in some instances pithed, and in all cases set up for recording heart rate and blood pressure by standard techniques.

depression = settings: in vivo; cited from earlier work
[3] = test system: heart rate response to p-tyramine; assay: Cheese effect: potentiation of response to intraduodenal p-tyramine, anaesthetized rats; type: in vivo, male Sprague-Dawley rats; settings: p-tyramine i.d.
Procedure: as §1, §2

MAO-A = settings: cited from earlier work
MAO-B = settings: cited from earlier work

For N[C@@H]1C[C@H]1c1ccccc1 (relative stereo) [tranylcypromine], the “preference in action upon MAO” value (MAO-A and MAO-B) is listed as “not preferential”.
In the case of NC/C(=C\F)CSc1ccccc1 [(E)-2-thiophenoxymethyl-3-fluoroallylamine], the “Ratio B:A (inhibitory activity against MAO-B versus MAO-A)” value (MAO-B versus MAO-A) is reported as 100.
In the case of NC/C(=C/F)CSc1ccc(F)cc1 [(Z)-2-(4'-fluorothiophenoxy) methyl-3-fluoroallylamine], the “Ratio B:A (inhibitory activity against MAO-B versus MAO-A)” value (MAO-B versus MAO-A) is reported as 100.
NC/C(=C/F)COc1ccccc1 [(Z)-2-phenoxymethyl-3-fluoroallylamine] gave an IC50 (MAO) of 1 µM.
For NC/C(=C/F)CSc1ccccc1 [(Z)-2-thiophenoxymethyl-3-fluoroallylamine], the “Ratio B:A (inhibitory activity against MAO-B versus MAO-A)” value (MAO-B versus MAO-A) was 1,000 and the IC50 (MAO) was 1 µM.
In the case of C#CCN(C)[C@H](C)Cc1ccccc1 [L-deprenyl, reference compound], the cheese effect [1] is listed as “not observed”, the “Potentiation of heart rate response to p-tyramine” value (“Potentiation … to p-tyramine” below) ([2]; 0.1 mg/kg) is listed as 1.3 fold and the “Potentiation … to p-tyramine” value ([2]; 1.0 mg/kg) is listed as 2.2 fold. The clinical antidepressant effect (depression) was “clinically effective antidepressant agents”, the “Potentiation … to p-tyramine” value ([3]; 0.1 mg/kg, in words) was “no effect” and the “Potentiation … to p-tyramine” value ([3]; 1.0 mg/kg) was 2.1 fold.
For CNC/C(=C/F)COc1ccc(Cl)cc1Cl [N-methyl (Z)-2-(2',4'-dichlorophenoxy)methyl-3-fluoroallylamine], the “Ratio B:A (inhibitory activity against MAO-B versus MAO-A)” value (MAO-B versus MAO-A) was 100.
In the case of C#CCN(C)CCCOc1ccc(Cl)cc1Cl [clorgyline, reference compound], the “Potentiation … to p-tyramine” value ([2]; 0.1 mg/kg) is given as 5.2 fold, the clinical antidepressant effect (depression) is given as “clinically effective antidepressant agents” and the IC50 (MAO) is given as 0.01 µM. The “preferential inhibition of MAO-A” value (MAO-A) was “MAO-A is preferentially inhibited” and the “Potentiation … to p-tyramine” value ([3]; 0.1 mg/kg) was 5.6 fold.
For Cc1cc(C(=O)NNCc2ccccc2)no1 [isocarboxazid], the “preference in action upon MAO” value (MAO-A and MAO-B) is listed as “not preferential”.
For C#CCN(C)Cc1ccccc1 [pargyline], the dose-dependence of selectivity (MAO-A and MAO-B; lower versus higher dosages) is given as “selective inhibitors at lower dosages, but are not selective inhibitors at higher dosages”, the clinical antidepressant effect (depression) is given as “clinically effective antidepressant agents” and the IC50 (MAO) is given as 2 µM. The “preferential inhibition of MAO-B” value (MAO-B) was “MAO-B is preferentially inhibited”.
In the case of NNCCc1ccccc1 [phenelzine], the “preference in action upon MAO” value (MAO-A and MAO-B) is listed as “not preferential”.
